Source: PubChem BioAssay (NCI)
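Five compound concentrations were applied to cells in 96-well plates for 48 hours; endpoints were derived by simple linear interpolation of the resulting dose-response curve. GI50 marks 50% less growth. TGI: total growth inhibition.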

How the values were obtained:
Test in all cases: NCI-60 cell line screen, 48 h
786-0 renal = tested on: 786-0 renal
A498 renal = tested on: A498 renal
A549 NSCLC = tested on: A549 NSCLC
ACHN renal = tested on: ACHN renal
BT-549 breast = tested on: BT-549 breast
CAKI-1 renal = tested on: CAKI-1 renal
CCRF-CEM leukemia = tested on: CCRF-CEM leukemia
COLO 205 colon = tested on: COLO 205 colon
DU-145 prostate = tested on: DU-145 prostate
EKVX NSCLC = tested on: EKVX NSCLC
HCC-2998 colon = tested on: HCC-2998 colon
HCT-116 colon = tested on: HCT-116 colon
HCT-15 colon = tested on: HCT-15 colon
HL-60(TB) leukemia = tested on: HL-60(TB) leukemia
HOP-62 NSCLC = tested on: HOP-62 NSCLC
HOP-92 NSCLC = tested on: HOP-92 NSCLC
HS 578T breast = tested on: HS 578T breast
HT29 colon = tested on: HT29 colon
IGROV1 ovarian = tested on: IGROV1 ovarian
KM12 colon = tested on: KM12 colon
LOX IMVI melanoma = tested on: LOX IMVI melanoma
M14 melanoma = tested on: M14 melanoma
MALME-3M melanoma = tested on: MALME-3M melanoma
MCF7 breast = tested on: MCF7 breast
MDA-MB-231 breast = tested on: MDA-MB-231 breast
MDA-MB-435 = tested on: MDA-MB-435
MOLT-4 leukemia = tested on: MOLT-4 leukemia
NCI-H226 lung = tested on: NCI-H226 lung
NCI-H23 lung = tested on: NCI-H23 lung
NCI-H460 lung = tested on: NCI-H460 lung
NCI-H522 lung = tested on: NCI-H522 lung
NCI/ADR-RES ovarian = tested on: NCI/ADR-RES ovarian
OVCAR-3 ovarian = tested on: OVCAR-3 ovarian
OVCAR-4 ovarian = tested on: OVCAR-4 ovarian
OVCAR-5 ovarian = tested on: OVCAR-5 ovarian
OVCAR-8 ovarian = tested on: OVCAR-8 ovarian
PC-3 prostate = tested on: PC-3 prostate
RPMI-8226 leukemia = tested on: RPMI-8226 leukemia
SF-268 CNS = tested on: SF-268 CNS
SF-295 CNS = tested on: SF-295 CNS
SF-539 CNS = tested on: SF-539 CNS
SK-MEL-2 melanoma = tested on: SK-MEL-2 melanoma
SK-MEL-28 melanoma = tested on: SK-MEL-28 melanoma
SK-MEL-5 melanoma = tested on: SK-MEL-5 melanoma
SK-OV-3 ovarian = tested on: SK-OV-3 ovarian
SN12C renal = tested on: SN12C renal
SNB-19 CNS = tested on: SNB-19 CNS
SNB-75 CNS = tested on: SNB-75 CNS
SR leukemia = tested on: SR leukemia
SW-620 colon = tested on: SW-620 colon
T-47D breast = tested on: T-47D breast
TK-10 renal = tested on: TK-10 renal
U251 CNS = tested on: U251 CNS
UACC-257 melanoma = tested on: UACC-257 melanoma
UACC-62 melanoma = tested on: UACC-62 melanoma
UO-31 renal = tested on: UO-31 renal

Q: Which results are given for CC(C)n1c(=O)n(C)c2cnc3cc(F)c(-c4ccc(OCCCN5CCCCC5)nc4)cc3c21?
A: GI50 (786-0 renal): 12.9 µM; TGI (786-0 renal): 37.9 µM; GI50 (A498 renal): 3.78 µM; TGI (A498 renal): 14 µM; GI50 (A549 NSCLC): 16.3 µM; TGI (A549 NSCLC): 63.9 µM; GI50 (ACHN renal): 16.2 µM; TGI (ACHN renal): 76.8 µM; GI50 (BT-549 breast): 10.1 µM; TGI (BT-549 breast): 28.4 µM; GI50 (CAKI-1 renal): 22.9 µM; TGI (CAKI-1 renal): > 100 µM; GI50 (CCRF-CEM leukemia): 9.9 µM; TGI (CCRF-CEM leukemia): 31.8 µM; GI50 (COLO 205 colon): 7.39 µM; TGI (COLO 205 colon): 23.4 µM; GI50 (DU-145 prostate): 17.7 µM; TGI (DU-145 prostate): > 100 µM; GI50 (EKVX NSCLC): 8.19 µM; TGI (EKVX NSCLC): 48.9 µM; GI50 (HCC-2998 colon): 23.3 µM; TGI (HCC-2998 colon): > 100 µM; GI50 (HCT-116 colon): 10.9 µM; TGI (HCT-116 colon): 27.4 µM; GI50 (HCT-15 colon): 11.1 µM; TGI (HCT-15 colon): 31.5 µM; GI50 (HL-60(TB) leukemia): 12.7 µM; TGI (HL-60(TB) leukemia): 38.2 µM; GI50 (HOP-62 NSCLC): 4.99 µM; TGI (HOP-62 NSCLC): 28.3 µM; GI50 (HOP-92 NSCLC): 1200 nM; TGI (HOP-92 NSCLC): 9.36 µM; GI50 (HS 578T breast): 3.33 µM; TGI (HS 578T breast): 18.1 µM; GI50 (HT29 colon): 8.5 µM; TGI (HT29 colon): 37.2 µM; GI50 (IGROV1 ovarian): 8.18 µM; TGI (IGROV1 ovarian): 41.9 µM; GI50 (KM12 colon): 4.19 µM; TGI (KM12 colon): 28.8 µM; GI50 (LOX IMVI melanoma): 4.13 µM; TGI (LOX IMVI melanoma): 16.6 µM; GI50 (M14 melanoma): 14.6 µM; TGI (M14 melanoma): 31.6 µM; GI50 (MALME-3M melanoma): 10.6 µM; TGI (MALME-3M melanoma): 23.4 µM; GI50 (MCF7 breast): 7.46 µM; TGI (MCF7 breast): 21.6 µM; GI50 (MDA-MB-231 breast): 11.4 µM; TGI (MDA-MB-231 breast): 27.6 µM; GI50 (MDA-MB-435): 17 µM; TGI (MDA-MB-435): 71.4 µM; GI50 (MOLT-4 leukemia): 5.47 µM; TGI (MOLT-4 leukemia): 41.5 µM; GI50 (NCI-H226 lung): 4.99 µM; TGI (NCI-H226 lung): 24.4 µM; GI50 (NCI-H23 lung): 16.5 µM; TGI (NCI-H23 lung): > 100 µM; GI50 (NCI-H460 lung): 11.3 µM; TGI (NCI-H460 lung): 29.4 µM; GI50 (NCI-H522 lung): 18.6 µM; TGI (NCI-H522 lung): 49.6 µM; GI50 (NCI/ADR-RES ovarian): 12.4 µM; TGI (NCI/ADR-RES ovarian): 81.3 µM; GI50 (OVCAR-3 ovarian): 13.7 µM; TGI (OVCAR-3 ovarian): 49.5 µM; GI50 (OVCAR-4 ovarian): 9.08 µM; TGI (OVCAR-4 ovarian): 56.5 µM; GI50 (OVCAR-5 ovarian): 15.7 µM; TGI (OVCAR-5 ovarian): 55.7 µM; GI50 (OVCAR-8 ovarian): 14.9 µM; TGI (OVCAR-8 ovarian): > 100 µM; GI50 (PC-3 prostate): 6.94 µM; TGI (PC-3 prostate): 37.1 µM; GI50 (RPMI-8226 leukemia): 3.22 µM; TGI (RPMI-8226 leukemia): 14.6 µM; GI50 (SF-268 CNS): 11.9 µM; TGI (SF-268 CNS): 40.2 µM; GI50 (SF-295 CNS): 3.99 µM; TGI (SF-295 CNS): 16.4 µM; GI50 (SF-539 CNS): 8.38 µM; TGI (SF-539 CNS): 22.9 µM; GI50 (SK-MEL-2 melanoma): 14.4 µM; TGI (SK-MEL-2 melanoma): 30.2 µM; GI50 (SK-MEL-28 melanoma): 13.5 µM; TGI (SK-MEL-28 melanoma): 32.4 µM; GI50 (SK-MEL-5 melanoma): 6.41 µM; TGI (SK-MEL-5 melanoma): 19.1 µM; GI50 (SK-OV-3 ovarian): 10.8 µM; TGI (SK-OV-3 ovarian): 73.8 µM; GI50 (SN12C renal): 7.14 µM; TGI (SN12C renal): 42.8 µM; GI50 (SNB-19 CNS): 17.4 µM; TGI (SNB-19 CNS): 77.5 µM; GI50 (SNB-75 CNS): 4.24 µM; TGI (SNB-75 CNS): 18.1 µM; GI50 (SR leukemia): 5.76 µM; TGI (SR leukemia): 32.2 µM; GI50 (SW-620 colon): 14.3 µM; TGI (SW-620 colon): 42.3 µM; GI50 (T-47D breast): 9.65 µM; TGI (T-47D breast): 38.8 µM; GI50 (TK-10 renal): 11.3 µM; TGI (TK-10 renal): 45.4 µM; GI50 (U251 CNS): 13.5 µM; TGI (U251 CNS): 37.6 µM; GI50 (UACC-257 melanoma): 16.4 µM; TGI (UACC-257 melanoma): 36.8 µM; GI50 (UACC-62 melanoma): 14.1 µM; TGI (UACC-62 melanoma): 29.3 µM; GI50 (UO-31 renal): 3.74 µM; TGI (UO-31 renal): 16.2 µM
